{"source": "patent US8952024B2", "about": "“Herbicidal pyrimidone derivatives” (E I du Pont de Nemours and Company, priority 2009, dated 2015)", "data": [{"tested_on": "galium (catchweed bedstraw, Galium aparine)", "experiment": "Test B pre-/postemergence plant response", "type": "in vivo", "conditions": "250 g ai/ha, Preemergence, 0 to 100 scale", "procedure,_shortened": "(§1)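 Seeds were sown in loam soil/sand blend and treated preemergence with compound in non-phytotoxic solvent mixture containing surfactant; postemergence sprays, same formulation, went onto plants 2 to 18 cm (1- to 4-leaf stage) in peat-based planting medium. Greenhouse 13 to 15 days, then visual rating versus untreated controls, 0 (no effect) to 100 (complete control).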", "values": [{"smiles": "O=C1CCCC(O)=C1C(=O)c1cnc(-c2ccccc2)n(-c2cccc(Br)c2)c1=O", "note": "[Compound 38]", "Plant response rating, Galium": 85}, {"smiles": "O=C1CCCC(O)=C1C(=O)c1cnc(-c2ccccc2)n(-c2ccccc2F)c1=O", "note": "[Compound 26]", "Plant response rating, Galium": 98}, {"smiles": "CCCc1ncc(C(=O)C2=C(O)CCCC2=O)c(=O)n1-c1ccccc1C", "note": "[Compound 73]", "Plant response rating, Galium": 85}, {"smiles": "Cc1c(Cl)cccc1-n1c(-c2ccccc2)ncc(C(=O)C2=C(O)CCCC2=O)c1=O", "note": "[Compound 40]", "Plant response rating, Galium": 90}, {"smiles": "Cc1cc(-n2c(-c3ccccc3)ncc(C(=O)C3=C(O)CCCC3=O)c2=O)ccc1F", "note": "[Compound 53]", "Plant response rating, Galium": 90}]}, {"tested_on": "galium (catchweed bedstraw, Galium aparine)", "experiment": "Test B pre-/postemergence plant response", "type": "in vivo", "conditions": "Preemergence, 31 g ai/ha; scale 0 to 100 (0 no effect, 100 complete control)", "procedure,_shortened": "as §1", "values": [{"smiles": "O=C1CCCC(O)=C1C(=O)c1cnc(-c2ccccc2)n(-c2cccc(Br)c2)c1=O", "note": "[Compound 38]", "Plant response rating, Galium": 0}, {"smiles": "O=C1CCCC(O)=C1C(=O)c1cnc(-c2ccccc2)n(-c2ccccc2F)c1=O", "note": "[Compound 26]", "Plant response rating, Galium": 0}, {"smiles": "Cc1c(Cl)cccc1-n1c(-c2ccccc2)ncc(C(=O)C2=C(O)CCCC2=O)c1=O", "note": "[Compound 40]", "Plant response rating, Galium": 50}, {"smiles": "Cc1cc(-n2c(-c3ccccc3)ncc(C(=O)C3=C(O)CCCC3=O)c2=O)ccc1F", "note": "[Compound 53]", "Plant response rating, Galium": 0}]}, {"tested_on": "galium (catchweed bedstraw, Galium aparine)", "experiment": "Test B pre-/postemergence plant response", "type": "in vivo", "conditions": "Preemergence, 62 g ai/ha; scale 0 to 100 (0 no effect, 100 complete control)", "procedure,_shortened": "as §1", "values": [{"smiles": "O=C1CCCC(O)=C1C(=O)c1cnc(-c2ccccc2)n(-c2cccc(Br)c2)c1=O", "note": "[Compound 38]", "Plant response rating, Galium": 40}, {"smiles": "O=C1CCCC(O)=C1C(=O)c1cnc(-c2ccccc2)n(-c2ccccc2F)c1=O", "note": "[Compound 26]", "Plant response rating, Galium": 50}, {"smiles": "CCCc1ncc(C(=O)C2=C(O)CCCC2=O)c(=O)n1-c1ccccc1C", "note": "[Compound 73]", "Plant response rating, Galium": 30}, {"smiles": "Cc1c(Cl)cccc1-n1c(-c2ccccc2)ncc(C(=O)C2=C(O)CCCC2=O)c1=O", "note": "[Compound 40]", "Plant response rating, Galium": 70}, {"smiles": "Cc1cc(-n2c(-c3ccccc3)ncc(C(=O)C3=C(O)CCCC3=O)c2=O)ccc1F", "note": "[Compound 53]", "Plant response rating, Galium": 0}]}, {"tested_on": "galium (catchweed bedstraw, Galium aparine)", "experiment": "Test B pre-/postemergence plant response", "type": "in vivo", "conditions": "Preemergence, 125 g ai/ha; 0 to 100 scale", "procedure,_shortened": "as §1", "values": [{"smiles": "O=C1CCCC(O)=C1C(=O)c1cnc(-c2ccccc2)n(-c2cccc(Br)c2)c1=O", "note": "[Compound 38]", "Galium plant response rating": 85}, {"smiles": "O=C1CCCC(O)=C1C(=O)c1cnc(-c2ccccc2)n(-c2ccccc2F)c1=O", "note": "[Compound 26]", "Galium plant response rating": 90}, {"smiles": "Cc1c(Cl)cccc1-n1c(-c2ccccc2)ncc(C(=O)C2=C(O)CCCC2=O)c1=O", "note": "[Compound 40]", "Galium plant response rating": 85}]}, {"tested_on": "galium (catchweed bedstraw, Galium aparine)", "experiment": "Test B pre-/postemergence plant response", "type": "in vivo", "conditions": "Preemergence, 125 g ai/ha; scale 0 to 100, 0 no effect, 100 complete control", "procedure,_shortened": "as §1", "values": [{"smiles": "CCCc1ncc(C(=O)C2=C(O)CCCC2=O)c(=O)n1-c1ccccc1C", "note": "[Compound 73]", "Plant response rating, Galium": 80}, {"smiles": "Cc1cc(-n2c(-c3ccccc3)ncc(C(=O)C3=C(O)CCCC3=O)c2=O)ccc1F", "note": "[Compound 53]", "Plant response rating, Galium": 0}]}, {"tested_on": "sunflower (common oilseed sunflower, Helianthus annuus)", "experiment": "Test B pre-/postemergence plant response", "type": "in vivo", "conditions": "250 g ai/ha, Preemergence, 0 to 100 scale", "procedure,_shortened": "as §1", "values": [{"smiles": "O=C1CCCC(O)=C1C(=O)c1cnc(-c2ccccc2)n(-c2cccc(Br)c2)c1=O", "note": "[Compound 38]", "Plant response rating, Sunflower": 75}, {"smiles": "O=C1CCCC(O)=C1C(=O)c1cnc(-c2ccccc2)n(-c2ccccc2F)c1=O", "note": "[Compound 26]", "Plant response rating, Sunflower": 95}, {"smiles": "Cc1c(Cl)cccc1-n1c(-c2ccccc2)ncc(C(=O)C2=C(O)CCCC2=O)c1=O", "note": "[Compound 40]", "Plant response rating, Sunflower": 80}]}, {"tested_on": "sunflower (common oilseed sunflower, Helianthus annuus)", "experiment": "Test B pre-/postemergence plant response", "type": "in vivo", "conditions": "Preemergence, 31 g ai/ha; scale 0 to 100 (0 no effect, 100 complete control)", "procedure,_shortened": "as §1", "values": [{"smiles": "O=C1CCCC(O)=C1C(=O)c1cnc(-c2ccccc2)n(-c2cccc(Br)c2)c1=O", "note": "[Compound 38]", "Plant response rating, Sunflower": 0}, {"smiles": "O=C1CCCC(O)=C1C(=O)c1cnc(-c2ccccc2)n(-c2ccccc2F)c1=O", "note": "[Compound 26]", "Plant response rating, Sunflower": 60}, {"smiles": "CCCc1ncc(C(=O)C2=C(O)CCCC2=O)c(=O)n1-c1ccccc1C", "note": "[Compound 73]", "Plant response rating, Sunflower": 0}, {"smiles": "Cc1c(Cl)cccc1-n1c(-c2ccccc2)ncc(C(=O)C2=C(O)CCCC2=O)c1=O", "note": "[Compound 40]", "Plant response rating, Sunflower": 20}, {"smiles": "Cc1cc(-n2c(-c3ccccc3)ncc(C(=O)C3=C(O)CCCC3=O)c2=O)ccc1F", "note": "[Compound 53]", "Plant response rating, Sunflower": 15}]}, {"tested_on": "sunflower (common oilseed sunflower, Helianthus annuus)", "experiment": "Test B pre-/postemergence plant response", "type": "in vivo", "conditions": "Preemergence, 62 g ai/ha; scale 0 to 100 (0 no effect, 100 complete control)", "procedure,_shortened": "as §1", "values": [{"smiles": "O=C1CCCC(O)=C1C(=O)c1cnc(-c2ccccc2)n(-c2ccccc2F)c1=O", "note": "[Compound 26]", "Plant response rating, Sunflower": 90}, {"smiles": "CCCc1ncc(C(=O)C2=C(O)CCCC2=O)c(=O)n1-c1ccccc1C", "note": "[Compound 73]", "Plant response rating, Sunflower": 20}, {"smiles": "Cc1cc(-n2c(-c3ccccc3)ncc(C(=O)C3=C(O)CCCC3=O)c2=O)ccc1F", "note": "[Compound 53]", "Plant response rating, Sunflower": 55}]}, {"tested_on": "sunflower (common oilseed sunflower, Helianthus annuus)", "experiment": "Test B pre-/postemergence plant response", "type": "in vivo", "conditions": "Preemergence, 125 g ai/ha; 0 to 100 scale", "procedure,_shortened": "as §1", "values": [{"smiles": "O=C1CCCC(O)=C1C(=O)c1cnc(-c2ccccc2)n(-c2cccc(Br)c2)c1=O", "note": "[Compound 38]", "Sunflower plant response rating": 25}, {"smiles": "O=C1CCCC(O)=C1C(=O)c1cnc(-c2ccccc2)n(-c2ccccc2F)c1=O", "note": "[Compound 26]", "Sunflower plant response rating": 90}, {"smiles": "Cc1c(Cl)cccc1-n1c(-c2ccccc2)ncc(C(=O)C2=C(O)CCCC2=O)c1=O", "note": "[Compound 40]", "Sunflower plant response rating": 75}]}, {"tested_on": "sunflower (common oilseed sunflower, Helianthus annuus)", "experiment": "Test B pre-/postemergence plant response", "type": "in vivo", "conditions": "Preemergence, 125 g ai/ha; scale 0 to 100, 0 no effect, 100 complete control", "procedure,_shortened": "as §1", "values": [{"smiles": "CCCc1ncc(C(=O)C2=C(O)CCCC2=O)c(=O)n1-c1ccccc1C", "note": "[Compound 73]", "Plant response rating, Sunflower": 70}, {"smiles": "Cc1cc(-n2c(-c3ccccc3)ncc(C(=O)C3=C(O)CCCC3=O)c2=O)ccc1F", "note": "[Compound 53]", "Plant response rating, Sunflower": 65}]}, {"tested_on": "nightshade (eastern black nightshade, Solanum ptycanthum)", "experiment": "Test B pre-/postemergence plant response", "type": "in vivo", "conditions": "250 g ai/ha, Preemergence, 0 to 100 scale", "procedure,_shortened": "as §1", "values": [{"smiles": "O=C1CCCC(O)=C1C(=O)c1cnc(-c2ccccc2)n(-c2cccc(Br)c2)c1=O", "note": "[Compound 38]", "Plant response rating, Nightshade": 100}, {"smiles": "O=C1CCCC(O)=C1C(=O)c1cnc(-c2ccccc2)n(-c2ccccc2F)c1=O", "note": "[Compound 26]", "Plant response rating, Nightshade": 100}, {"smiles": "Cc1c(Cl)cccc1-n1c(-c2ccccc2)ncc(C(=O)C2=C(O)CCCC2=O)c1=O", "note": "[Compound 40]", "Plant response rating, Nightshade": 100}]}, {"tested_on": "nightshade (eastern black nightshade, Solanum ptycanthum)", "experiment": "Test B pre-/postemergence plant response", "type": "in vivo", "conditions": "Preemergence, 31 g ai/ha; scale 0 to 100 (0 no effect, 100 complete control)", "procedure,_shortened": "as §1", "values": [{"smiles": "O=C1CCCC(O)=C1C(=O)c1cnc(-c2ccccc2)n(-c2cccc(Br)c2)c1=O", "note": "[Compound 38]", "Plant response rating, Nightshade": 90}, {"smiles": "O=C1CCCC(O)=C1C(=O)c1cnc(-c2ccccc2)n(-c2ccccc2F)c1=O", "note": "[Compound 26]", "Plant response rating, Nightshade": 85}, {"smiles": "CCCc1ncc(C(=O)C2=C(O)CCCC2=O)c(=O)n1-c1ccccc1C", "note": "[Compound 73]", "Plant response rating, Nightshade": 75}, {"smiles": "Cc1c(Cl)cccc1-n1c(-c2ccccc2)ncc(C(=O)C2=C(O)CCCC2=O)c1=O", "note": "[Compound 40]", "Plant response rating, Nightshade": 65}, {"smiles": "Cc1cc(-n2c(-c3ccccc3)ncc(C(=O)C3=C(O)CCCC3=O)c2=O)ccc1F", "note": "[Compound 53]", "Plant response rating, Nightshade": 98}]}, {"tested_on": "nightshade (eastern black nightshade, Solanum ptycanthum)", "experiment": "Test B pre-/postemergence plant response", "type": "in vivo", "conditions": "Preemergence, 62 g ai/ha; scale 0 to 100 (0 no effect, 100 complete control)", "procedure,_shortened": "as §1", "values": [{"smiles": "O=C1CCCC(O)=C1C(=O)c1cnc(-c2ccccc2)n(-c2cccc(Br)c2)c1=O", "note": "[Compound 38]", "Plant response rating, Nightshade": 95}, {"smiles": "O=C1CCCC(O)=C1C(=O)c1cnc(-c2ccccc2)n(-c2ccccc2F)c1=O", "note": "[Compound 26]", "Plant response rating, Nightshade": 100}, {"smiles": "CCCc1ncc(C(=O)C2=C(O)CCCC2=O)c(=O)n1-c1ccccc1C", "note": "[Compound 73]", "Plant response rating, Nightshade": 95}, {"smiles": "Cc1c(Cl)cccc1-n1c(-c2ccccc2)ncc(C(=O)C2=C(O)CCCC2=O)c1=O", "note": "[Compound 40]", "Plant response rating, Nightshade": 98}, {"smiles": "Cc1cc(-n2c(-c3ccccc3)ncc(C(=O)C3=C(O)CCCC3=O)c2=O)ccc1F", "note": "[Compound 53]", "Plant response rating, Nightshade": 98}]}, {"tested_on": "nightshade (eastern black nightshade, Solanum ptycanthum)", "experiment": "Test B pre-/postemergence plant response", "type": "in vivo", "conditions": "Preemergence, 125 g ai/ha; 0 to 100 scale", "procedure,_shortened": "as §1", "values": [{"smiles": "O=C1CCCC(O)=C1C(=O)c1cnc(-c2ccccc2)n(-c2cccc(Br)c2)c1=O", "note": "[Compound 38]", "Nightshade plant response rating": 98}, {"smiles": "O=C1CCCC(O)=C1C(=O)c1cnc(-c2ccccc2)n(-c2ccccc2F)c1=O", "note": "[Compound 26]", "Nightshade plant response rating": 100}, {"smiles": "Cc1c(Cl)cccc1-n1c(-c2ccccc2)ncc(C(=O)C2=C(O)CCCC2=O)c1=O", "note": "[Compound 40]", "Nightshade plant response rating": 98}]}, {"tested_on": "nightshade (eastern black nightshade, Solanum ptycanthum)", "experiment": "Test B pre-/postemergence plant response", "type": "in vivo", "conditions": "Preemergence, 125 g ai/ha; scale 0 to 100, 0 no effect, 100 complete control", "procedure,_shortened": "as §1", "values": [{"smiles": "CCCc1ncc(C(=O)C2=C(O)CCCC2=O)c(=O)n1-c1ccccc1C", "note": "[Compound 73]", "Plant response rating, Nightshade": 98}, {"smiles": "Cc1cc(-n2c(-c3ccccc3)ncc(C(=O)C3=C(O)CCCC3=O)c2=O)ccc1F", "note": "[Compound 53]", "Plant response rating, Nightshade": 100}]}]}
